# Laboratory results: PubChem BioAssay AID1699 (The Scripps Research Institute Molecular Screening Center, 2009)
# Calls of active or inactive are those of the source.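 The calls were made as follows: active = IC50 on parental Ba/F3 cells at or below 10 µM; inactive = IC50 above 10 µM.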
# Tested on: parental Ba/F3 viability, CellTiter-Glo ATP luminescence
# Experiment: parental Ba/F3 viability inhibition, dose response, counter-screen for JAK2V617F inhibitor project, cell-based, luminescence (AID 1699)
row,Structure (SMILES),IC50
1,Cc1ccc(Nc2nc(N)nc(CCl)n2)cc1,1.42 µM
2,COc1cccc(N(C(=O)CCl)C(C(=O)NCCc2ccccc2)c2cccs2)c1 (stereo not drawn),1.34 µM
3,CCOc1ccc(Nc2nc(N)nc(CCl)n2)cc1,1.92 µM
4,Cc1cc2[nH]c3c(c[n+](C)c4ccccc34)c2cc1C,3.85 µM
5,Cc1nc2c(=O)n(C)c(=O)n(C)c2nc1Cl,4.55 µM
6,O=C(Oc1cccc2c(O)cccc12)c1ccccc1,6.51 µM
7,Clc1ccc(-n2nnnc2Sc2ncnc3sccc23)cc1,2.91 µM
8,O=C(CCl)NCc1cc(-c2ccc(Cl)cc2)no1,8.35 µM
9,COc1ccc([N+](=O)[O-])c(S(=O)(=O)c2ccc(Cl)cc2)n1,3.26 µM
10,CC1CCCC(NC(=O)NC(=O)CCl)C1C (stereo not drawn),10.6 µM (inactive)
11,O=C(CCl)N(C/C=C/c1ccccc1)c1ccc2c(c1)OCCO2,2.51 µM
12,CN(C)C(=S)SSC(=S)N(C)C,0.223 µM
13,CCCc1nc2ccccc2c(=O)n1/N=C/c1ccc(O)c(O)c1,3.62 µM
14,Cc1ccccc1CS(=O)(=O)c1nnc([C@H](CC(C)C)NC(=O)OC(C)(C)C)o1,1.68 µM
15,CCN1C/C(=C/c2ccc(OC)c(O)c2)C(=O)/C(=C/c2ccc(OC)c(O)c2)C1,1.5 µM
16,Cc1cccc(NC(=O)c2ccc([N+](=O)[O-])o2)c1,6.88 µM
17,CCCCn1c(=N)n(CC(=O)c2ccc(Br)s2)c2ccccc21,4.37 µM
18,O=C(C=C=Nc1ccccc1)C(=O)N=C=Cc1ccccc1,10.7 µM (inactive)
19,Cc1[nH]c(=O)c(C(=O)/C=C/c2ccccc2F)c2c1CCCC2,5.19 µM
20,CCCn1c(CN(C)Cc2ccccc2)nc2c1c(=O)n(C)c(=O)n2C,8.17 µM
21,COc1cccc(F)c1C(C[N+](=O)[O-])c1c(N)n(C)c(=O)n(C)c1=O (stereo not drawn),4.22 µM
22,CCCCCCN(C(=O)CCl)c1ccccc1,2.11 µM
23,O=C(CCl)N=c1sccn1Cc1cccc2ccccc12,1.04 µM
24,COc1ccccc1N(C(=O)CCl)c1cn(C(C)=O)c2ccccc12,4.61 µM
25,Cc1cccc(OCC(=O)Nc2cc(C)ccc2O)c1,> 40 µM (inactive)
26,O=c1oc2ccc(Cl)cc2nc1/C=C(\O)c1ccco1,8.35 µM
27,O=C(OCn1ncc(Cl)c(Cl)c1=O)c1ccc(F)cc1,1.14 µM

row,Structure (SMILES),IC50
1,Nc1nc(CCl)nc(N(c2ccccc2)c2ccccc2)n1,1.26 µM
2,COc1cc2c(cc1OC)-c1cc(N3CCCc4ccccc43)nc(=O)n1CC2,35.6 µM (inactive)
3,O=C(CCl)N=c1sccn1Cc1ccc(Cl)cc1Cl,0.653 µM
4,Cc1oc2c(O)c(O)ccc2c(=O)c1-c1cnn(-c2ccccc2)c1,2.97 µM
5,Cc1ccc(C)c(Sc2ccc(NC(=O)CCl)cc2)c1,7.25 µM
6,Oc1ccccc1OCCOc1ccccc1OCCOc1ccccc1O,7.12 µM
7,COC(=O)/C=C/c1ccc(OC(=O)OC)c(OC(=O)OC)c1,10.7 µM (inactive)
8,CNC(=O)c1nnsc1S(=O)c1ccc(Cl)cc1 (stereo not drawn),2.26 µM
9,COc1ccc(-c2cnc3c(c2)CCC3(C#N)C#N)cc1,2.07 µM
10,Oc1ccc(Cl)cc1N=Cc1sc2ccccc2c1Cl,5.94 µM
11,Cc1ccc(NC(=O)C(=Cc2ccc(C(=O)O)cc2)C(=O)Nc2ccc(C)cc2C)c(C)c1,5.46 µM
12,Nc1nc(N)c2nc(-c3ccccc3)c(N)nc2n1,4.61 µM
13,CC(C)C1C(C#N)=C(N)Oc2n[nH]c(-c3ccc4ccccc4c3)c21 (stereo not drawn),3.56 µM
14,Cc1cccc(CS(=O)(=O)c2nnc([C@H](Cc3ccccc3)NC(=O)OC(C)(C)C)o2)c1,3.64 µM
15,c1ccc2c(CN3CCCCCC3)c[nH]c2c1,10.7 µM (inactive)
16,CC1CCN(CCCNC(=O)c2cc3c(Cl)nc4ccccc4c3s2)CC1,4.39 µM
17,Nc1nc(CCl)nc(Nc2ccc3ccccc3c2)n1,1.08 µM
18,O=C(/C(=N/N=C/c1ccc(O)c(O)c1)c1ccccc1)c1ccccc1,1.67 µM
19,Cc1nn(Cc2ccc(Cl)cc2Cl)c(C)c1NC(=O)CCl,11.4 µM (inactive)
20,O=C(OCn1ncc(Cl)c(Cl)c1=O)c1ccccc1Cl,1.2 µM
21,COc1ccc(C2=Nn3c(nnc3C3CCCCC3)SC2)cc1OC,7.52 µM
22,c1ccc2c(c1)CSc1sccc1C2=C1CCNCC1,10.5 µM (inactive)
23,Cc1cccc(N(Cc2ccccc2)C(=O)CCl)c1,1.63 µM
24,CCOc1ccc(C(=O)C(CN2CCOCC2)c2ccccc2)cc1 (stereo not drawn),2.4 µM
25,[O-][N+]1=c2ccc(Nc3ccccc3)cc2=NC12CCCCC2,5.2 µM
26,COC1(OC)C(/C=C/c2ccc(Cl)cc2)C(C#N)(C#N)C1(OC)OC (stereo not drawn),7.83 µM
